Non-standard residues stand in square brackets, D forms with d. Residues, ends and D or L forms follow the SMILES beside them. Ahx = NCCCCCC(=O)O
System: S. aureus JAR
Format: cell-based
Details: JAR, 2 h
Method: S. aureus JAR is described in Campoccia et al. (Int. J. Artif. Organs, 2008 September; 31(9):841-7).
For the in vitro killing assay with P10 variants, S. aureus JAR ([…] CFU/ml) were incubated for 2 hours at 37° C. with various concentrations of the peptides in PBS or in PBS/human plasma (1/1, v/v). […] The LC99.9 is the average value of two independent experiments.

Compound: CC[C@H](C)[C@H](NC(=O)[C@H](CCCCN)NC(=O)[C@H](CCCCN)NC(=O)[C@H](Cc1ccc(O)cc1)NC(=O)[C@H](CCC(=O)O)NC(=O)[C@H](CCCNC(=N)N)NC(=O)[C@H](C)NC(=O)[C@H](CC(C)C)NC(C)=O)C(=O)N[C@H](C(=O)N[C@@H](CCC(=O)O)C(=O)N[C@@H](CCCCN)C(=O)N[C@@H](CC(C)C)C(=O)N[C@@H](CCCCN)C(=O)N[C@@H](CCCNC(=N)N)C(=O)N[C@@H](Cc1c[nH]c2ccccc12)C(=O)N[C@@H](CC(C)C)C(=O)N[C@@H](CCCNC(=N)N)C(=O)N[C@@H](CCC(N)=O)C(=O)N[C@H](C(=O)N[C@@H](CC(C)C)C(=O)N[C@@H](CCCNC(=N)N)C(=O)N[C@H](C(=O)N[C@@H](CC(C)C)C(=O)N[C@@H](CCCNC(=N)N)C(=O)NCCCCCC(=O)NCCCCCC(N)=O)[C@@H](C)O)C(C)C)C(C)C [Peptide 1302-4, JLAREYKKIVEKLKRWLRQVLRTLRZZB] (Ac-LAREYKKIVEKLKRWLRQVLRTLR[Ahx][Ahx]-NH2)
- LC99.9 (μM) (50% plasma): 38.4 µM
- LC99.9 (μM) (PBS): 0.8 µM

Compound: Ac-KKIVEKLKRWLRQ-NH2 [Peptide 1302-63, JKKIVEKLKRWLRQB]
- LC99.9 (μM) (50% plasma): 102.4 µM
- LC99.9 (μM) (PBS): >3.2 µM

Compound: CC[C@H](C)[C@H](NC(=O)[C@H](CCCCN)NC(=O)[C@H](CCCCN)NC(=O)[C@H](Cc1ccc(O)cc1)NC(=O)[C@H](CCC(=O)O)NC(=O)[C@H](CCCNC(=N)N)NC(=O)[C@H](C)NC(=O)[C@H](CC(C)C)NC(C)=O)C(=O)N[C@H](C(=O)N[C@@H](CCC(=O)O)C(=O)N[C@@H](CCCCN)C(=O)N[C@@H](CC(C)C)C(=O)N[C@@H](CCCCN)C(=O)N[C@@H](CCCNC(=N)N)C(=O)N[C@@H](Cc1c[nH]c2ccccc12)C(=O)N[C@@H](CC(C)C)C(=O)N[C@@H](CCCNC(=N)N)C(=O)N[C@@H](CCC(N)=O)C(=O)N[C@@H](C(=O)N[C@@H](CC(C)C)C(=O)N[C@@H](CCCNC(=N)N)C(=O)N[C@H](C(=O)N[C@@H](CC(C)C)C(=O)N[C@@H](CCCNC(=N)N)C(N)=O)[C@@H](C)O)C(C)C)C(C)C [Peptide 1301-19, JLAREYKKIVEKLKRWLRQvLRTLRB] (Ac-LAREYKKIVEKLKRWLRQ[dV]LRTLR-NH2)
- LC99.9 (μM) (50% plasma): 32.0 µM
- LC99.9 (μM) (PBS): 0.6 µM

Compound: Ac-VAREYKKIVEKLKRWLRQVLRTLR-NH2 [Peptide 1302-18, JVAREYKKIVEKLKRWLRQVLRTLRB]
- LC99.9 (μM) (50% plasma): 76.8 µM
- LC99.9 (μM) (PBS): 1.6 µM

Compound: CC[C@H](C)[C@H](NC(=O)[C@H](CCCCN)NC(=O)[C@H](CCCCN)NC(=O)[C@H](Cc1ccc(O)cc1)NC(=O)[C@H](CCC(=O)O)NC(=O)[C@H](CCCNC(=N)N)NC(=O)[C@H](C)NC(=O)[C@H](CC(C)C)NC(C)=O)C(=O)N[C@H](C(=O)N[C@@H](CCC(=O)O)C(=O)N[C@@H](CCCCN)C(=O)N[C@@H](CC(C)C)C(=O)N[C@@H](CCCCN)C(=O)N[C@@H](CCCNC(=N)N)C(=O)N[C@@H](Cc1c[nH]c2ccccc12)C(=O)N[C@@H](CC(C)C)C(=O)N[C@@H](CCCNC(=N)N)C(=O)N[C@H](CCC(N)=O)C(=O)N[C@H](C(=O)N[C@@H](CC(C)C)C(=O)N[C@@H](CCCNC(=N)N)C(=O)N[C@H](C(=O)N[C@@H](CC(C)C)C(=O)N[C@@H](CCCNC(=N)N)C(N)=O)[C@@H](C)O)C(C)C)C(C)C [Peptide 1301-18, JLAREYKKIVEKLKRWLRqVLRTLRB] (Ac-LAREYKKIVEKLKRWLR[dQ]VLRTLR-NH2)
- LC99.9 (μM) (50% plasma): 38.4 µM
- LC99.9 (μM) (PBS): 0.6 µM

Compound: Ac-LAREYPKIVEKLKRWLRPVLRTLR-NH2 [Peptide 1302-14, JLAREYPKIVEKLKRWLRPVLRTLRB]
- LC99.9 (μM) (50% plasma): 102.4 µM
- LC99.9 (μM) (PBS): 3.2 µM

Compound: CC[C@H](C)[C@H](NC(=O)[C@H](CCCCN)NC(=O)[C@H](CCCCN)NC(=O)[C@@H](Cc1ccc(O)cc1)NC(=O)[C@H](CCC(=O)O)NC(=O)[C@H](CCCNC(=N)N)NC(=O)[C@H](C)NC(=O)[C@H](CC(C)C)NC(C)=O)C(=O)N[C@H](C(=O)N[C@@H](CCC(=O)O)C(=O)N[C@@H](CCCCN)C(=O)N[C@@H](CC(C)C)C(=O)N[C@@H](CCCCN)C(=O)N[C@@H](CCCNC(=N)N)C(=O)N[C@@H](Cc1c[nH]c2ccccc12)C(=O)N[C@@H](CC(C)C)C(=O)N[C@@H](CCCNC(=N)N)C(=O)N[C@@H](CCC(N)=O)C(=O)N[C@H](C(=O)N[C@@H](CC(C)C)C(=O)N[C@@H](CCCNC(=N)N)C(=O)N[C@H](C(=O)N[C@@H](CC(C)C)C(=O)N[C@@H](CCCNC(=N)N)C(N)=O)[C@@H](C)O)C(C)C)C(C)C [Peptide 1301-5, JLAREyKKIVEKLKRWLRQVLRTLRB] (Ac-LARE[dY]KKIVEKLKRWLRQVLRTLR-NH2)
- LC99.9 (μM) (50% plasma): 38.4 µM
- LC99.9 (μM) (PBS): 0.6 µM

Compound: Ac-LAREYKKIVEKLKRWLRSVLRTLR-NH2 [Peptide 1302-44, JLAREYKKIVEKLKRWLRSVLRTLRB]
- LC99.9 (μM) (50% plasma): 76.8 µM
- LC99.9 (μM) (PBS): 1.6 µM

Compound: Ac-LAKEYKKIVEKLKRWLRQVLRTLR-NH2 [Peptide 1302-23, JLAKEYKKIVEKLKRWLRQVLRTLRB]
- LC99.9 (μM) (50% plasma): 102.4 µM
- LC99.9 (μM) (PBS): 1.6 µM

Compound: CC[C@H](C)[C@H](NC(=O)[C@H](CCCCN)NC(=O)[C@H](CCCCN)NC(=O)[C@H](Cc1ccc(O)cc1)NC(=O)[C@H](CCC(=O)O)NC(=O)[C@H](CCCNC(=N)N)NC(=O)[C@H](C)NC(=O)[C@H](CC(C)C)NC(C)=O)C(=O)N[C@H](C(=O)N[C@@H](CCC(=O)O)C(=O)N[C@@H](CCCCN)C(=O)N[C@@H](CC(C)C)C(=O)N[C@@H](CCCCN)C(=O)N[C@@H](CCCNC(=N)N)C(=O)N[C@@H](Cc1c[nH]c2ccccc12)C(=O)N[C@@H](CC(C)C)C(=O)N[C@@H](CCCNC(=N)N)C(=O)N[C@@H](CCC(N)=O)C(=O)N[C@H](C(=O)N[C@@H](CC(C)C)C(=O)N[C@@H](CCCNC(=N)N)C(=O)N[C@H](C(=O)N[C@@H](CC(C)C)C(=O)N[C@@H](CCCNC(=N)N)C(=O)NCCCCCC(N)=O)[C@@H](C)O)C(C)C)C(C)C [Peptide 1302-6, JLAREYKKIVEKLKRWLRQVLRTLRZB] (Ac-LAREYKKIVEKLKRWLRQVLRTLR[Ahx]-NH2)
- LC99.9 (μM) (50% plasma): 38.4 µM
- LC99.9 (μM) (PBS): 0.6 µM

Compound: CC[C@H](C)[C@H](NC(=O)[C@H](CCCCN)NC(=O)[C@H](CCCCN)NC(=O)[C@H](Cc1ccc(O)cc1)NC(=O)[C@@H](CCC(=O)O)NC(=O)[C@H](CCCNC(=N)N)NC(=O)[C@H](C)NC(=O)[C@H](CC(C)C)NC(C)=O)C(=O)N[C@H](C(=O)N[C@@H](CCC(=O)O)C(=O)N[C@@H](CCCCN)C(=O)N[C@@H](CC(C)C)C(=O)N[C@@H](CCCCN)C(=O)N[C@@H](CCCNC(=N)N)C(=O)N[C@@H](Cc1c[nH]c2ccccc12)C(=O)N[C@@H](CC(C)C)C(=O)N[C@@H](CCCNC(=N)N)C(=O)N[C@@H](CCC(N)=O)C(=O)N[C@H](C(=O)N[C@@H](CC(C)C)C(=O)N[C@@H](CCCNC(=N)N)C(=O)N[C@H](C(=O)N[C@@H](CC(C)C)C(=O)N[C@@H](CCCNC(=N)N)C(N)=O)[C@@H](C)O)C(C)C)C(C)C [Peptide 1301-4, JLAReYKKIVEKLKRWLRQVLRTLRB] (Ac-LAR[dE]YKKIVEKLKRWLRQVLRTLR-NH2)
- LC99.9 (μM) (50% plasma): 38.4 µM
- LC99.9 (μM) (PBS): 0.6 µM

Compound: CC[C@H](C)[C@H](NC(=O)[C@H](CCCCN)NC(=O)[C@H](CCCCN)NC(=O)[C@H](Cc1ccc(O)cc1)NC(=O)[C@H](CCC(=O)O)NC(=O)[C@H](CCCNC(=N)N)NC(=O)[C@H](C)NC(=O)[C@H](CC(C)C)NC(C)=O)C(=O)N[C@H](C(=O)N[C@@H](CCC(=O)O)C(=O)N[C@@H](CCCCN)C(=O)N[C@@H](CC(C)C)C(=O)N[C@@H](CCCCN)C(=O)N[C@H](CCCNC(=N)N)C(=O)N[C@@H](Cc1c[nH]c2ccccc12)C(=O)N[C@@H](CC(C)C)C(=O)N[C@@H](CCCNC(=N)N)C(=O)N[C@@H](CCC(N)=O)C(=O)N[C@H](C(=O)N[C@@H](CC(C)C)C(=O)N[C@@H](CCCNC(=N)N)C(=O)N[C@H](C(=O)N[C@@H](CC(C)C)C(=O)N[C@@H](CCCNC(=N)N)C(N)=O)[C@@H](C)O)C(C)C)C(C)C [Peptide 1301-14, JLAREYKKIVEKLKrWLRQVLRTLRB] (Ac-LAREYKKIVEKLK[dR]WLRQVLRTLR-NH2)
- LC99.9 (μM) (50% plasma): 38.4 µM
- LC99.9 (μM) (PBS): 0.6 µM

Compound: Ac-YKKIVEKLKRWLRQVLRTLR-NH2 [Peptide 1302-59, JYKKIVEKLKRWLRQVLRTLRB]
- LC99.9 (μM) (50% plasma): 51.2 µM
- LC99.9 (μM) (PBS): 1.6 µM

Compound: Ac-LAREYKKIVEKLKRWLRQLLRTLR-NH2 [Peptide 1302-46, JLAREYKKIVEKLKRWLRQLLRTLRB]
- LC99.9 (μM) (50% plasma): 102.4 µM
- LC99.9 (μM) (PBS): 1.6 µM

Compound: Ac-LAREYKKPVEKLKRWLPQVLRTLR-NH2 [Peptide 1302-16, JLAREYKKPVEKLKRWLPQVLRTLRB]
- LC99.9 (μM) (50% plasma): 102.4 µM
- LC99.9 (μM) (PBS): >3.2 µM

Compound: Ac-LARQYKKIVEKLKRWLRQVLRTLR-NH2 [Peptide 1302-25, JLARQYKKIVEKLKRWLRQVLRTLRB]
- LC99.9 (μM) (50% plasma): 51.2 µM
- LC99.9 (μM) (PBS): 1.2 µM

Compound: Ac-LAREYKKIVEKLKRWLRQVLKTLR-NH2 [Peptide 1302-50, JLAREYKKIVEKLKRWLRQVLKTLRB]
- LC99.9 (μM) (50% plasma): 51.2 µM
- LC99.9 (μM) (PBS): 0.8 µM

Compound: Ac-REYKKIVEKLKRWLRQVLRTLR-NH2 [Peptide 1302-56, JREYKKIVEKLKRWLRQVLRTLRB]
- LC99.9 (μM) (50% plasma): 51.2 µM
- LC99.9 (μM) (PBS): 1.6 µM

Compound: CC[C@H](C)[C@H](NC(=O)[C@H](CCCCN)NC(=O)[C@H](CCCCN)NC(=O)[C@H](Cc1ccc(O)cc1)NC(=O)[C@H](CCC(=O)O)NC(=O)[C@H](CCCNC(=N)N)NC(=O)[C@H](C)NC(=O)[C@H](CC(C)C)NC(C)=O)C(=O)N[C@H](C(=O)N[C@@H](CCC(=O)O)C(=O)N[C@@H](CCCCN)C(=O)N[C@@H](CC(C)C)C(=O)N[C@@H](CCCCN)C(=O)N[C@@H](CCCNC(=N)N)C(=O)N[C@@H](Cc1c[nH]c2ccccc12)C(=O)N[C@@H](CC(C)C)C(=O)N[C@@H](CCCNC(=N)N)C(=O)N[C@@H](CCC(N)=O)C(=O)N[C@H](C(=O)N[C@@H](CC(C)C)C(=O)N[C@H](CCCNC(=N)N)C(=O)N[C@H](C(=O)N[C@@H](CC(C)C)C(=O)N[C@@H](CCCNC(=N)N)C(N)=O)[C@@H](C)O)C(C)C)C(C)C [Peptide 1301-21, JLAREYKKIVEKLKRWLRQVLrTLRB] (Ac-LAREYKKIVEKLKRWLRQVL[dR]TLR-NH2)
- LC99.9 (μM) (50% plasma): 38.4 µM
- LC99.9 (μM) (PBS): 0.6 µM
